Test system: 11th -round pool RNA
Assay: RNA-liposome binding in the presence of a potential competitor (SEPHACRYL S-1000 gel filtration)
Settings: 5 mM competitor; 11th-round pool RNA incubated with liposomes

## NCCO [ethanolamine]
  RNA binding to phosphatidylcholine liposomes in the presence of competitor: did not interfere with binding

Source: patent US6225063A, “RNA channels in biological membranes” (University Technology Corporation, priority 1999, dated 2001)
